Columns and labels:
[1] = target: Voltage-gated inwardly rectifying potassium channel KCNH2 (Homo sapiens, UniProt Q12809); format: functional; conditions: read-out: AC50
D(4) dopamine receptor = target: T1, D(4) dopamine receptor (Homo sapiens, UniProt P21917)
T1 sequence (P21917 whole entry): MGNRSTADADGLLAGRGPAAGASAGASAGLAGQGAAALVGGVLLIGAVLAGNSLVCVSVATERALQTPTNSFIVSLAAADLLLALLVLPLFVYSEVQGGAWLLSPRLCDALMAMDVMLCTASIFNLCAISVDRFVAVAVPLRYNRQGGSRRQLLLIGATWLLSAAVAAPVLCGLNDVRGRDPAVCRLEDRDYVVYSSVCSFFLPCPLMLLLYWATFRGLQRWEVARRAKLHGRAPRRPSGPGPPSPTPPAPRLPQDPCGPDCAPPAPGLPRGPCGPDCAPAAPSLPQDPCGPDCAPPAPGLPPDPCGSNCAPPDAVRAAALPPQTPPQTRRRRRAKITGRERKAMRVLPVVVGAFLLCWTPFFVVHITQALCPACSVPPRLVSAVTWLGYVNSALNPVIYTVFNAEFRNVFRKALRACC

Acetylcholinesterase = Acetylcholinesterase (Homo sapiens, UniProt P22303); format: functional
Chain of Acetylcholinesterase (P22303 whole entry): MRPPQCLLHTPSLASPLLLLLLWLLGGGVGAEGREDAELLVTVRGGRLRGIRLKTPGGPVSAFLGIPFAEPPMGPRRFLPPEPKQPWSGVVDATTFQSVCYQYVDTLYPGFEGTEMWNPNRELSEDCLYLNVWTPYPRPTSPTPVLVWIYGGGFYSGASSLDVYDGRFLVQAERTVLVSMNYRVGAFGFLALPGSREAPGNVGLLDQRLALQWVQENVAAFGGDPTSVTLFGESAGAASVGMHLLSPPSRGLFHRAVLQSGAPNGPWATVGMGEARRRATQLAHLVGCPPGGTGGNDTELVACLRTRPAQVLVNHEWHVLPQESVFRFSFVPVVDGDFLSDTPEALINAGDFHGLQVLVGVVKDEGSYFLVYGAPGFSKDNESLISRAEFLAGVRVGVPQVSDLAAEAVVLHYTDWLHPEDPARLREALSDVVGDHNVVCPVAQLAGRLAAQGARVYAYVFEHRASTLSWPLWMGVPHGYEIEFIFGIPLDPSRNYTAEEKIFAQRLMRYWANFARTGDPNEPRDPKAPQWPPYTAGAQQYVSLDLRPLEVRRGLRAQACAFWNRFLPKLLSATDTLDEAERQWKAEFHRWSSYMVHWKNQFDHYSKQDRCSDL

Progesterone receptor = target: T2, Progesterone receptor (Homo sapiens, UniProt P06401)
T2 sequence (P06401 whole entry): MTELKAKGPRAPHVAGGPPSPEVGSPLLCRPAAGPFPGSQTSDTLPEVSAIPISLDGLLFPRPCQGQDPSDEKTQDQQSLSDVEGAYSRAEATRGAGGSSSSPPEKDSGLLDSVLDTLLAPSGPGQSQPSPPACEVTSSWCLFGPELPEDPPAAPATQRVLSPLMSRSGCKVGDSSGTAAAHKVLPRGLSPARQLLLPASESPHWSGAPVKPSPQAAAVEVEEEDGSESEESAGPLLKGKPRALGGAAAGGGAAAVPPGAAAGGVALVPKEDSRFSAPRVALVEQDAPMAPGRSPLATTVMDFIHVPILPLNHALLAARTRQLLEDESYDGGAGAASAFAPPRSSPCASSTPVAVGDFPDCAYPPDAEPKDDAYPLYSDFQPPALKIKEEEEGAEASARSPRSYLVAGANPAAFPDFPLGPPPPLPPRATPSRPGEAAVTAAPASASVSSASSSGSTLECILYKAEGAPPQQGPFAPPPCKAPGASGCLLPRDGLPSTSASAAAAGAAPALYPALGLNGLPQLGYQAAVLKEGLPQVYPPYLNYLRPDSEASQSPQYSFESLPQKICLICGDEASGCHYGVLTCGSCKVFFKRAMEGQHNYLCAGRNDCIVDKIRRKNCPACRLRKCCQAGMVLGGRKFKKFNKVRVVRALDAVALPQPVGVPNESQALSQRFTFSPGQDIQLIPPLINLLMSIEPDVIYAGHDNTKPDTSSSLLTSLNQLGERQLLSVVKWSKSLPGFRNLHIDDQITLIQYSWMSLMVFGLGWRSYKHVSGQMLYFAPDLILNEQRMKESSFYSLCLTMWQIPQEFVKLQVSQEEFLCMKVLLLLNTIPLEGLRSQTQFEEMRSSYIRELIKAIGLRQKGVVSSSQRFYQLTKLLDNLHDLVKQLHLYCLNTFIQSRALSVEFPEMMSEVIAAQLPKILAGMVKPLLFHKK

[2] = target: T3, Prostaglandin G/H synthase 1 (Homo sapiens, UniProt P23219); format: functional
T3 sequence (P23219 whole entry): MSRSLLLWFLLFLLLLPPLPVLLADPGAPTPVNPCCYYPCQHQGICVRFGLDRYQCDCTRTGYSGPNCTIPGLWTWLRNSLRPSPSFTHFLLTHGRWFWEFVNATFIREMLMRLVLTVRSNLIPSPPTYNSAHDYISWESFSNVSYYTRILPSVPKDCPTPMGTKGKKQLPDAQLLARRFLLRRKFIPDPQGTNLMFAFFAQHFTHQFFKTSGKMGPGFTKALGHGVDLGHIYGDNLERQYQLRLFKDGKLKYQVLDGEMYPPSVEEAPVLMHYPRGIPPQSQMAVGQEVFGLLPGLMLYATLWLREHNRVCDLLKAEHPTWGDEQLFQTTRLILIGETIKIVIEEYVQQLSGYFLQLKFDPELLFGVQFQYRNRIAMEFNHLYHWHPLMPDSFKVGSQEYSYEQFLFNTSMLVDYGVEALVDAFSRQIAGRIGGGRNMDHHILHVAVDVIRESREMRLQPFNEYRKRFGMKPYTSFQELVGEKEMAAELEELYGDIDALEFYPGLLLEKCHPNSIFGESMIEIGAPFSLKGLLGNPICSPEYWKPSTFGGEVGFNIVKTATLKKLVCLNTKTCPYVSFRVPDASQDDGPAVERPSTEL

[3] = target: Vascular endothelial growth factor receptor 2 (Homo sapiens, UniProt P35968); format: functional
Chain of Vascular endothelial growth factor receptor 2 (P35968 whole entry): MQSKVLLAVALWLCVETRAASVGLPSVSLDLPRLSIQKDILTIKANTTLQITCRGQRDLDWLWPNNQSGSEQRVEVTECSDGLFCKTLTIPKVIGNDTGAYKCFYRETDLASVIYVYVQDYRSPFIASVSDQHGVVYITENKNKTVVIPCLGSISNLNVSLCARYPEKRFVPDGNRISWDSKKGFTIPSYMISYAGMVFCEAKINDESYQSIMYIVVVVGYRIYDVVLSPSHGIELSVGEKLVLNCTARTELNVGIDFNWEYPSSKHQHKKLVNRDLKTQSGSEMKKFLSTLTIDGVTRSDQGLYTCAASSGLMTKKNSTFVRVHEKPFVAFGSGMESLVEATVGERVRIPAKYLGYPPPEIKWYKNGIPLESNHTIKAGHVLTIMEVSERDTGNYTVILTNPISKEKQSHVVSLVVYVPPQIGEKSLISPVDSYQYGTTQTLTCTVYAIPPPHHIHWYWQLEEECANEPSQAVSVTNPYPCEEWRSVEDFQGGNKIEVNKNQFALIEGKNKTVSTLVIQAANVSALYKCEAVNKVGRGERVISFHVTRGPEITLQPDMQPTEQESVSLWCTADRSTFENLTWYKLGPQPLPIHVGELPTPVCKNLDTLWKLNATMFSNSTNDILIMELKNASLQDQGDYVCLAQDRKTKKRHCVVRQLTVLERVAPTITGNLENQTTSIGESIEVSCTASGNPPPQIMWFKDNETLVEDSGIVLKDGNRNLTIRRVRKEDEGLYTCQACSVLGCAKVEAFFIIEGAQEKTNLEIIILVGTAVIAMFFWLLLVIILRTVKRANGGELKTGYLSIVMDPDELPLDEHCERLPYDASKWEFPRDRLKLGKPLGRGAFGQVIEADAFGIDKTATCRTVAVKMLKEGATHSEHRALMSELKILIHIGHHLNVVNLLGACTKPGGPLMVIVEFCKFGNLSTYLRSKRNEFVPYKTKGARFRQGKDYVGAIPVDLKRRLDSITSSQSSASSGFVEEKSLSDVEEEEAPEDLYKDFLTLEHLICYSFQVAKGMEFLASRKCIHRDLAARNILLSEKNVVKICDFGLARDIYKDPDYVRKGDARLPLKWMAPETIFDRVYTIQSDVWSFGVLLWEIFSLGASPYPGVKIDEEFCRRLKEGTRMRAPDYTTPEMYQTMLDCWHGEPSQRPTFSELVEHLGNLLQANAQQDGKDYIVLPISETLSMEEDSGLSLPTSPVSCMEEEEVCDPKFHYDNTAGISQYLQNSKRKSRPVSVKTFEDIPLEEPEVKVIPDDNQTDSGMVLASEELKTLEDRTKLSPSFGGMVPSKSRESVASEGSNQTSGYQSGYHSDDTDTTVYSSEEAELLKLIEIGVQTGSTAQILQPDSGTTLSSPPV

[4] = target: 3',5'-cyclic-AMP phosphodiesterase 4A (Homo sapiens, UniProt P27815); format: functional
Adenosine receptor A1 = target: T4, Adenosine receptor A1 (Homo sapiens, UniProt P30542)
T4 sequence (P30542 whole entry): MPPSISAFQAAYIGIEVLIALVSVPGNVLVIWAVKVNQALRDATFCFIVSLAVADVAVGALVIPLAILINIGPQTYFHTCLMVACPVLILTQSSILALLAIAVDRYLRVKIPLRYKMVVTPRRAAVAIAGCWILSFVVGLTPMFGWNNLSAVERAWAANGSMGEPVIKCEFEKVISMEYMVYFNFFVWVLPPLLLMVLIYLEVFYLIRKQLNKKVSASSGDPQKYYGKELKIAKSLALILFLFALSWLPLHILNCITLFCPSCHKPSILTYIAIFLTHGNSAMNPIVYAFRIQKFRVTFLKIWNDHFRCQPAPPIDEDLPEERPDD

[5] = target: cGMP-inhibited 3',5'-cyclic phosphodiesterase 3A (Homo sapiens, UniProt Q14432); format: functional
Chain of cGMP-inhibited 3',5'-cyclic phosphodiesterase 3A (Q14432 whole entry): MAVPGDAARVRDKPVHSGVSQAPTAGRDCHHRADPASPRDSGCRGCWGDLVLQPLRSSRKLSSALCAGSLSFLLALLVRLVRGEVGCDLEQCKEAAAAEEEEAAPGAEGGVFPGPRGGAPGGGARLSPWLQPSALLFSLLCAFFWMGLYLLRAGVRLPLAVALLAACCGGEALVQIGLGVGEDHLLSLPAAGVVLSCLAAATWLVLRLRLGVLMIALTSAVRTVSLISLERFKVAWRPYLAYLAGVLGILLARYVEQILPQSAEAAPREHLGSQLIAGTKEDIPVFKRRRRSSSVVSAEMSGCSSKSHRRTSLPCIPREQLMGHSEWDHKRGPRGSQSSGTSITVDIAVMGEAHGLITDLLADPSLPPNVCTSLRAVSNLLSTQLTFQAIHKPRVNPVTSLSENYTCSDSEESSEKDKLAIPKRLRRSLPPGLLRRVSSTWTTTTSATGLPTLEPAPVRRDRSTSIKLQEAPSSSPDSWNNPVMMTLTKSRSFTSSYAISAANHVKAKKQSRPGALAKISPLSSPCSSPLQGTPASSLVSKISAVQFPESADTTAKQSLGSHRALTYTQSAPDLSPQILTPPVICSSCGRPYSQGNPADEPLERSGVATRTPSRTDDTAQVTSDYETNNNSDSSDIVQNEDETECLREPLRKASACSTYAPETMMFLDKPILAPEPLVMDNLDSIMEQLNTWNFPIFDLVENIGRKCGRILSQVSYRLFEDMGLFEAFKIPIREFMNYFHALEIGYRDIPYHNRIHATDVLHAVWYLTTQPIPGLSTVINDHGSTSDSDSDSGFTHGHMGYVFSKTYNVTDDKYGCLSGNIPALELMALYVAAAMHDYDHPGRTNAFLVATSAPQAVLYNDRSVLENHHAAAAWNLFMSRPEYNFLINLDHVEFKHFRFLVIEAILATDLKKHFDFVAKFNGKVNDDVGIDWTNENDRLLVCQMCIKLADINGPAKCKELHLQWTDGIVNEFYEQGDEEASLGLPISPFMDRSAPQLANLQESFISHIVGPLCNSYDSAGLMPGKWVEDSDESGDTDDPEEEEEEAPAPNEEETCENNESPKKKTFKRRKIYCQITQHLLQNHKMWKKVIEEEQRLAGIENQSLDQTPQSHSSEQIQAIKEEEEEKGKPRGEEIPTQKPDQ

Adenosine receptor A3 = target: T5, Adenosine receptor A3 (Homo sapiens, UniProt P0DMS8)
T5 sequence (P0DMS8 whole entry): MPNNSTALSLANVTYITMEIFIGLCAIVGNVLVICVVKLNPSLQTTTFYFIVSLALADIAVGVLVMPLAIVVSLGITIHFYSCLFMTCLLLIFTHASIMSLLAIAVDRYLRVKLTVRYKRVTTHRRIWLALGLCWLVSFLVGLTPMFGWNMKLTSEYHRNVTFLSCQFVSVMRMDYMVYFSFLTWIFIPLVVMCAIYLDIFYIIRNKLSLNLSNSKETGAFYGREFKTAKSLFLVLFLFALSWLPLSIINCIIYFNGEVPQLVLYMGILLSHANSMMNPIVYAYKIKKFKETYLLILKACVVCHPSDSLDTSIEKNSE

Thromboxane A2 receptor [6] = target: T6, Thromboxane A2 receptor (Homo sapiens, UniProt P21731); format: functional, cell-based
T6 sequence (P21731 whole entry): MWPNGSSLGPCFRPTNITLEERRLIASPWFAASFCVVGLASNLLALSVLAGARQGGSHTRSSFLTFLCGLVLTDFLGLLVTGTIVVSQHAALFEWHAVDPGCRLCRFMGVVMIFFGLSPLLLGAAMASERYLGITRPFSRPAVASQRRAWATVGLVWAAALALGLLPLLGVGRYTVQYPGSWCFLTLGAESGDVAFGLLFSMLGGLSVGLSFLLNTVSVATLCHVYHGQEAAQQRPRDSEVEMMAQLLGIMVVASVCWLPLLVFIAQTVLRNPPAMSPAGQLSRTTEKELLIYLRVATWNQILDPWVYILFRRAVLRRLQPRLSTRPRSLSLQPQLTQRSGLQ

Thromboxane A2 receptor [7] = target: T6, Thromboxane A2 receptor; format: functional, cell-based; remark: listed apart in the source
[8] = target: T3, Prostaglandin G/H synthase 1; format: functional; remark: listed apart in the source
Estrogen receptor = target: T7, Estrogen receptor (Homo sapiens, UniProt P03372)
T7 sequence (P03372 whole entry): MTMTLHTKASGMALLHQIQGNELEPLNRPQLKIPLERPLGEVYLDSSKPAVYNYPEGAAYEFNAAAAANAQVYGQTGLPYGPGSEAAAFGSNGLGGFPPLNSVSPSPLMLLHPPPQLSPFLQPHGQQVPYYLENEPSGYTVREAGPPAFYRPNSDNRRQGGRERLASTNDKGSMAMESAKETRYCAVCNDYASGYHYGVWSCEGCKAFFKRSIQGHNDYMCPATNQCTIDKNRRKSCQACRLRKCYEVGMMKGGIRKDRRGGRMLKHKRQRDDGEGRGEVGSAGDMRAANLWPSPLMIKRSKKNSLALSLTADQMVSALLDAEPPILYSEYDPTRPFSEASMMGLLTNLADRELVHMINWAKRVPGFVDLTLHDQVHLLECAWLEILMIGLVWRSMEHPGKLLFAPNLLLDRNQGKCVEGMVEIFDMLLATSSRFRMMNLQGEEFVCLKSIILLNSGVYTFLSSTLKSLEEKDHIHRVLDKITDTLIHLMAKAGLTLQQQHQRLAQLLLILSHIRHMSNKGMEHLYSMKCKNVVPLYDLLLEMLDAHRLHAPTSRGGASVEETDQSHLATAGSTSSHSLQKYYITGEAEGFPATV

Prothrombin = Prothrombin (Homo sapiens, UniProt P00734); format: functional
Note: assay procedure not described here.

Chain of Voltage-gated inwardly rectifying potassium channel KCNH2 (Q12809 whole entry): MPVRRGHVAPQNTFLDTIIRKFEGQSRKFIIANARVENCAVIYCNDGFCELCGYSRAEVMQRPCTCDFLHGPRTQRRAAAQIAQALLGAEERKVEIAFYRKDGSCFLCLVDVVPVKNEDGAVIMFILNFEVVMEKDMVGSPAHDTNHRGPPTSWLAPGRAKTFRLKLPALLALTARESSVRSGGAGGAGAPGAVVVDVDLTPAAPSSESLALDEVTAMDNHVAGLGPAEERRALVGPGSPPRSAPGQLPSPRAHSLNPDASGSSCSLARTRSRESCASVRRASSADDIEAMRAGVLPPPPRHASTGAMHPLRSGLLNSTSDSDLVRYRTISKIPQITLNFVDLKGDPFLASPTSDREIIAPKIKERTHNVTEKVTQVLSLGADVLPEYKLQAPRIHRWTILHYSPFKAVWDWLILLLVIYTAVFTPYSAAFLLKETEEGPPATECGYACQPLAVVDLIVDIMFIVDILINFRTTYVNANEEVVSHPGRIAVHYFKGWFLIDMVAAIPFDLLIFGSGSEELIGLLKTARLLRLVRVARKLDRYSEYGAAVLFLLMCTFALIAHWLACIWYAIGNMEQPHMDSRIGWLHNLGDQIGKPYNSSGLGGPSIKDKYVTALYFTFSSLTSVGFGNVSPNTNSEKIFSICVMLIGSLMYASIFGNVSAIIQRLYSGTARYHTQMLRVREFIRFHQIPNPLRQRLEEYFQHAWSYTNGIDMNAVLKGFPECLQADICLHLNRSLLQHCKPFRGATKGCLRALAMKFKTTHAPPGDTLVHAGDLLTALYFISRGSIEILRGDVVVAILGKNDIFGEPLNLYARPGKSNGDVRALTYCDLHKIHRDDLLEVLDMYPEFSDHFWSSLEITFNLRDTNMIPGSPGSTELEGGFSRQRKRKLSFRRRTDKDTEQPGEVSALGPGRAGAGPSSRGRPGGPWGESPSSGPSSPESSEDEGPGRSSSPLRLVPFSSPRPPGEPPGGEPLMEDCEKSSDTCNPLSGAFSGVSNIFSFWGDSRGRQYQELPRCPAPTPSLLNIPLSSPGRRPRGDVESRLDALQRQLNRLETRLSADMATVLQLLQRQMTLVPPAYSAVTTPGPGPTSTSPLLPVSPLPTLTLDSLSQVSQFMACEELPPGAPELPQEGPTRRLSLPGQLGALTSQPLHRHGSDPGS

Compound | AC50 [1] [µM] | AC50 (D(4) dopamine receptor) [µM] | AC50 (Acetylcholinesterase) [µM] | AC50 (Progesterone receptor) [µM] | AC50 [2] [µM] | AC50 [3] [µM] | AC50 [4] [µM] | AC50 (Adenosine receptor A1) [µM] | AC50 [5] [µM] | AC50 (Adenosine receptor A3) [µM] | AC50 (Thromboxane A2 receptor [6]) [µM] | AC50 (Thromboxane A2 receptor [7]) [µM] | AC50 [8] [µM] | AC50 (Estrogen receptor) [µM] | AC50 (Prothrombin) [µM]
COC(=O)[C@@H]1[C@H]2C[C@H]3c4[nH]c5ccccc5c4CCN3C[C@@H]2CC[C@@H]1O [YOHIMBINE] | 29.1 | > 10 | > 0.3 |  |  |  |  |  |  |  |  |  |  |  | 
C=CC[C@]1(O)CC[C@H]2[C@@H]3CCC4=CCCC[C@@H]4[C@H]3CC[C@@]21C [ALLYLESTRENOL] |  |  | > 30 | 0.0039 | 25.5 | > 30 | > 30 | > 30 | > 30 | 3.91 | > 30 | > 30 | > 30 | 0.331 | > 30
